Experiment [1] addresses T1, SARS-CoV-2 PLpro (papain-like protease) (Severe acute respiratory syndrome coronavirus 2, UniProt P0DTD1). The experiment is described as follows: biochemical.
For experiment [2], the target named is T1, SARS-CoV-2 PLpro (papain-like protease). The following applies: binder.

Five molecules from publication doi:10.1101/2021.02.13.431008v1 (biorxiv, 2021) can be followed below.

As a reminder, the IC50 is the concentration at which inhibition is half-maximal. Take `CC(C)c1cc(C(C)C)c(CC(=O)NS(=O)(=O)Oc2c(C(C)C)cccc2C(C)C)c(C(C)C)c1` [avasimibe]: in experiment [1], the IC50 was greater than 20 µM.

With `Cc1ccc(NC2CNC2)cc1C(=O)N[C@H](C)c1cccc(-c2ccc(CNC3CCCC3)s2)c1` [XR8-23], the “Ave kd” value in experiment [2] was 0.124 s⁻¹.

For the molecule `CCOc1nc2cccc(C(=O)O)c2n1Cc1ccc(-c2ccccc2-c2nnn[nH]2)cc1` [candesartan], the IC50 in experiment [1] was greater than 20 µM. For the molecule `Cc1ccc(NC2CNC2)cc1C(=O)N[C@H](C)c1cccc2ccccc12` [ZN2-184], in experiment [2], the “Ave kd” value is 0.349 s⁻¹. Still for that read-out and setting: to `Cc1ccc(NC2CNC2)cc1C(=O)N[C@H](C)c1cccc(-c2cccs2)c1` [ZN3-80] belongs 0.327 s⁻¹.
